In paper PMC12206857 (Frontiers in Microbiology, 2025):
Entries after “also recorded” stand apart in the source; their conditions may differ. Where two headings read alike, the source gives them in different places. *1 amine or outer side, *2 acyl side, *3 side chain or, on linkers, in order; H or OH if unused. Where a SMILES comes first, the peptide text is derived from it. [ ]: non-standard residue; d: D form. X1 = CC(C)CCCCCCCCC[C@H](CC(=O)[*:2])N[*:1]

Tests used:
F. graminearum [1] = type: cell-based, Fusarium graminearum; details: DiSC3(5) fluorescence
F. graminearum [2] = type: physicochemical, Fusarium graminearum; details: filter paper method; for Effect of divalent cations Fe2+, Mg2+, Ca2+ on antifungal activity: 10 nM metal ion; for Thermal stability of antifungal activity: 25°C, 50°C, 100°C water for 30 min
F. graminearum [3] = type: in vivo, Fusarium graminearum on corn seeds; details: seeds soaked in 64 μg/mL, sprayed with spores 1 × 10^5 CFU/mL, 28°C, 10 seeds per group
pepsin = details: 5 mg/mL enzyme, 1 h, 37°C, stopped 10 min at 100°C; read-out antifungal activity against F. graminearum by filter paper method; n = 3
trypsin = details: 5 mg/mL enzyme, 1 h, 37°C, stopped 10 min at 100°C; read-out antifungal activity against F. graminearum by filter paper method; n = 3
papain = target: T1, papain (Carica papaya, UniProt P00784); details: n = 3
T1 sequence (P00784 134-345): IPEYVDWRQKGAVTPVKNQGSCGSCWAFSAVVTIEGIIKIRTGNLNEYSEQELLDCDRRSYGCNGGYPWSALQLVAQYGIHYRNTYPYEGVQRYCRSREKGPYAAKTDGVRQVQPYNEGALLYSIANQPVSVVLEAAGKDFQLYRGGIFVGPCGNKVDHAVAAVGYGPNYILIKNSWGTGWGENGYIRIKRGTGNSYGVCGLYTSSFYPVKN

F. graminearum hyphae = type: cell-based, Fusarium graminearum; details: 16 and 32 μg/mL, 12 h in PDB at 28°C
DON and ZEN = system: DON and ZEN; design: species or system Fusarium graminearum on corn seeds; details: in vivo
F. graminearum [4] = details: mixture of bacillomycin D with different fatty acid chain lengths; ref Gu et al., 2017; cited from earlier work
F. graminearum [5] = type: cell-based, Fusarium graminearum; details: dose-dependent, DCFH-DA fluorescence
proteinase K = proteinase K (Parengyodontium album, UniProt P06873); details: n = 3
F. graminearum conidia = details: ref Gong et al., 2015; cited from earlier work
Fusarium oxysporum = details: 25 μg/mL or 50 μg/mL; ref Hua et al., 2023; cited from earlier work
F. graminearum cells = details: ref Liang et al., 2023; cited from earlier work

Sequence of proteinase K (P06873 106-384): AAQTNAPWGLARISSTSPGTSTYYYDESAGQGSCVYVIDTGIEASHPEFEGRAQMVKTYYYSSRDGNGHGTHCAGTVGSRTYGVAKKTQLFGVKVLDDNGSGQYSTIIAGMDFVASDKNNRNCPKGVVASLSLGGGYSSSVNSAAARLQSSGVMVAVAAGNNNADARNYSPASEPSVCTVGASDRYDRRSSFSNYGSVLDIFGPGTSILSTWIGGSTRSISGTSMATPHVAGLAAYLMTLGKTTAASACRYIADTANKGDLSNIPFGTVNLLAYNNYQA

CC(C)CCCCCCCCC[C@@H]1CC(=O)N[C@@H](CC(N)=O)C(=O)N[C@H](Cc2ccc(O)cc2)C(=O)N[C@H](CC(N)=O)C(=O)N2CCC[C@H]2C(=O)N[C@@H](CCC(=O)O)C(=O)N[C@H](CO)C(=O)N[C@@H]([C@@H](C)O)C(=O)N1 [bacillomycin D, C15-bacillomycin D] (cyclo([X1]N[dY][dN]PE[dS]T))
Cell membrane potential (in words) (F. graminearum [1]): induced depolarization | Stability of antifungal activity in the presence of metal ions (F. graminearum [2]; 10 nM Na+, K+, Ca2+, Mg2+, Cu2+, Fe2+, Fe3+, room temperature, 2.5 mg/mL, n = 3): retained stable antibacterial activity | Effect of divalent cations Fe2+, Mg2+, Ca2+ on antifungal activity (F. graminearum [2]; room temperature, 2.5 mg/mL, n = 3): enhance their antifungal activity | Effect of divalent cations Fe2+, Mg2+, Ca2+ on antifungal activity (F. graminearum [2]; room temperature, 2.5 mg/mL, n = 3, listed as eumelanin): significantly enhanced | Thermal stability of antifungal activity (F. graminearum [2]; 7 μL of 2.5 mg/mL, colony diameter after 24 h at 28°C, n = 3): remains stable | Thermal stability of antifungal activity (F. graminearum [2]; 7 μL of 2.5 mg/mL, colony diameter after 24 h at 28°C, n = 3, listed as Bacillomycin D): maintained stable antibacterial activity | Antifungal activity across pH range 2–12 (F. graminearum [2]; pH 2–12, room temperature): maintains good antifungal activity | pH stability of antifungal activity, pH 8 or 10 (F. graminearum [2]; pH 8 or 10 (pH 8–10), room temperature, 7 μL of 2.5 mg/mL, colony diameter after 24 h at 28°C, n = 3): significant enhancement of antibacterial activity; also recorded: significant increase in antifungal activity | pH stability of antifungal activity, pH 14 (F. graminearum [2]; pH 14, room temperature, 2.5 mg/mL, n = 3): complete loss of activity | pH stability of antifungal activity, other pH conditions (F. graminearum [2]; pH values from 2 to 14 other than 8, 10 and 14, room temperature, 2.5 mg/mL, n = 3): the activity remained stable | Infection of maize seeds by F. graminearum (F. graminearum [3]): completely preventing infection | Activity after treatment with pepsin (pepsin): retained their activity | Activity after treatment with trypsin (trypsin): retained their activity | Activity after treatment with papain (papain): retained their activity | Hyphal morphology by SEM (F. graminearum hyphae): induced abnormal development | DON toxin synthesis in treated maize seeds (DON and ZEN): no detectable synthesis | ZEN toxin synthesis in treated maize seeds (DON and ZEN): no detectable synthesis | Half-inhibitory concentration (IC50) on F. graminearum (F. graminearum [4]): approximately 30 μg/mL | ROS levels in F. graminearum cells (in words) (F. graminearum [5]): induced abnormal ROS accumulation | Activity after treatment with proteinase K (proteinase K): retained their activity

iturin A
MIC, complete killing of F. graminearum conidia (F. graminearum conidia): 50 µg/mL | Cell membrane integrity of Fusarium oxysporum (Fusarium oxysporum): disrupted | ROS in Fusarium oxysporum (Fusarium oxysporum): significantly increased

surfactin
Intracellular ROS accumulation in F. graminearum cells (F. graminearum cells): induce intracellular ROS accumulation
